Active and inactive are the calls of the source. The rule behind the calls is not given here. Numbered stars: 1 amine (or outer) side, 2 acyl side, 3 side chain; on linkers, the order of the positions; unused ones are H or OH. Square brackets hold non-standard residues; d marks the D form. Side chains are listed from the residue outwards. Peptide text beside a SMILES is read from it. * marks the point of attachment. γGlu = O=C(O)[C@H](CCC(=O)[*:2])N[*:1]; Palmitoyl = CCCCCCCCCCCCCCCC(=O)*; Aib = CC(C)(N)C(=O)O
Assays:
[1] = target: Glucagon-like peptide 1 receptor (Homo sapiens, UniProt P43220); experiment: Agonist activity at human GLP-1 receptor expressed in HEK293 cells assessed as cAMP level measured after 60 mins by HTRF based assay; format: functional, cell-based
Chain of Glucagon-like peptide 1 receptor (P43220 whole entry): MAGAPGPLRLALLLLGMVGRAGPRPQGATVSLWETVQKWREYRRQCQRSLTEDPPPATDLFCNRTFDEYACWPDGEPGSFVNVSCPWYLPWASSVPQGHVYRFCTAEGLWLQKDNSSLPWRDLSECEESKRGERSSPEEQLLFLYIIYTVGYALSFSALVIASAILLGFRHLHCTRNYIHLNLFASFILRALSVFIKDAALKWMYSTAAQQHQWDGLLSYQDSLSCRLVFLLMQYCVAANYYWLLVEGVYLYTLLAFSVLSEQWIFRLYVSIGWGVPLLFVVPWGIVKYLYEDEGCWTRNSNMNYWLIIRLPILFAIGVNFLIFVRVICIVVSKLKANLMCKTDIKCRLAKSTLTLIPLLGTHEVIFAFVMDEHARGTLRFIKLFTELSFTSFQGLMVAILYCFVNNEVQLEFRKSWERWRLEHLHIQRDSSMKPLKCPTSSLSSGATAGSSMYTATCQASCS

Mus musculus = experiment: Antihyperglycemic effect in non-fasted DIO mouse assessed as decrease in blood glucose at 30 nmol/kg, sc measured upto 48 hrs; format: functional, organism-based

- EC50 [1]: 21 pM
SMILES: CCCCCCCCCCCCCCCC(=O)N[C@@H](CCC(=O)NCCCC[C@H](NC(=O)[C@H](C)NC(=O)[C@H](C)NC(=O)[C@H](CCC(=O)O)NC(=O)[C@H](CCC(=O)O)NC(=O)[C@H](CCC(=O)O)NC(=O)[C@H](CC(C)C)NC(=O)[C@H](Cc1ccc(O)cc1)NC(=O)[C@H](CO)NC(=O)[C@H](CO)NC(=O)[C@H](CCSC)NC(=O)[C@H](CC(=O)O)NC(=O)[C@H](CO)NC(=O)[C@@H](NC(=O)[C@H](Cc1ccccc1)NC(=O)[C@@H](NC(=O)CNC(=O)[C@H](CC(=O)O)NC(=O)C(C)(C)NC(=O)[C@@H](N)Cc1c[nH]cn1)[C@@H](C)O)[C@@H](C)O)C(=O)N[C@@H](CCC(=O)O)C(=O)N[C@@H](Cc1ccccc1)C(=O)N[C@H](C(=O)N[C@@H](CC(=O)O)C(=O)N[C@@H](Cc1c[nH]c2ccccc12)C(=O)N[C@@H](CC(C)C)C(=O)N[C@H](C(=O)N[C@@H](CCCCN)C(=O)NCC(=O)N[C@@H](CCCNC(=N)N)C(=O)N1CCC[C@H]1C(=O)N[C@@H](C)C(N)=O)[C@@H](C)CC)C(C)C)C(=O)O (H-H[Aib]DGTFTSDMSSYLEEEAAK([γGlu-Palmitoyl])EFVDWLIKGRPA-NH2)
- Activity (Mus musculus): inactive

From ChEMBL document CHEMBL5532661, “Discovery of a Novel Glucagon-like Peptide-1 (GLP-1) Analogue from Bullfrog and Investigation of Its Potential for Designing GLP-1-Based Multiagonists” (J Med Chem, 2024)
